This is an account of results in US10836743B2, “Fluorinated cyclopropylamine compound, preparation method therefor, pharmaceutical composition thereof, and uses thereof” (SHANGHAI INSTITUTE OF MATERIA MEDICA, CHINESE ACADEMY OF …, priority 2016, dated 2020).

The assay deals with leukemia cells MV4-11. As to the kind of experiment: Inhibitory activity on growth by MTS method. It is filed as cell-based. The settings on record: Homo sapiens. The method, then: 2. Test of Inhibitory Activities of Compound on Growth by MTS Method Experimental Principle:
MTS assay detects the inhibitory effect of the tested compound to the growth of leukemia cells MV (4:11). The principle is that succinate dehydrogenase in mitochondria in living cells can reduce exogenous thiazole blue to insoluble blue crystal Formazan.
• 1. MV4-11 cells in logarithmic growth phase were accurately counted at 16000 cells/mL, and the diluted cell solution was added to 96-well plates at 90 μL per well. • 2. Fresh medium was taken and sequentially added to a 96-well plate with cell fluid at 90 μL per well. • 3. […] 2 μL of the diluted compound was respectively added to a 96-well plate containing 98 μL of blank medium, and for DMSO group, 98 μL of blank medium was added into 2 μL of DMSO, and mixed for further use. • 5. The compound mixed with the medium was separately added to a 96-well plate in which cells were plated, in triplicate, 20 μL per well, and were mixed. The blank group was added with 200 μL of IMDM medium, and the DMSO group was added with 180 μL of the cell-containing medium in DMSO diluted with the medium. • 6. […]
A general note: Tetrazolium assays rely on reduction of a dye to a coloured formazan, in cell work by metabolically active cells.

[1] abbreviates: 72 h, MV4-11, 3 days, read-out: MTS 3 D.
[2] abbreviates: 240 h, MV4-11, 10 days, read-out: MTS 10 D.

Read-outs that look alike come from different tables or passages of the source. A value given as a limit tells only on which side of the number the result lay.

`CC(C)(C)OC(=O)c1ccc(CN2CCC(F)(CNC3CC3c3ccc(-c4ccc(F)cc4)s3)CC2)cc1` (stereo not drawn) [Example A105, Tert-butyl 4-((4-fluoro-4-(((2-(5-(4-fluorophenyl)thiophen-2-yl)cyclopropyl)amino)methyl)piperidin-1-yl)methyl)benzoate]: the IC50 worked out at 1.95 ± 0.6 µM under setting [1] and 8.35 ± 0.71 µM under setting [2]. For `O=C(OCC1CCNCC1)N1CCC(F)(CNC2CC2c2ccc(-c3cccc(C(F)(F)F)c3)nc2)CC1` (stereo not drawn) [Example A117], in that order: 15.4 ± 3.71 µM and 6.51 ± 2.02 µM. For `COc1ccc(-c2ccc(C3CC3NCC3(F)CCN(C(=O)OCC4CCNCC4)CC3)cn2)cc1` (stereo not drawn) [Example A112, Piperidin-4-ylmethyl 4-fluoro-4-(((2-(6-(4-methoxyphenyl)pyridin-3-yl)cyclopropyl)amino)methyl)piperidine-1-carboxylate], in that order: over 20 µM and over 20 µM.

For `O=C(OCC1CCNCC1)N1CCC(F)(CNC2CC2c2ccc(-c3ccc(F)cc3)nc2)CC1` (stereo not drawn) [Example A118, Piperidin-4-ylmethyl 4-fluoro-4-(((2-(6-(4-fluorophenyl)pyridin-3-yl)cyclopropyl)amino)methyl)piperidine-1-carbox ylate], the IC50 under setting [1] was over 20 µM and the IC50 under setting [2] was found to be 10.2 ± 2.77 µM.

On to `FC1(CN[C@@H]2C[C@H]2c2ccccc2)CCN(Cc2ccsc2)CC1` (relative stereo) [Example A98, N-((4-Fluoro-1-(thiophen-3-ylmethyl)piperidin-4-yl)methyl)-trans-2-phenylcyclopropylamine], for which the IC50 reads like this: under setting [1], over 20 µM; under setting [2], 0.064 ± 0.026 µM. For `O=C(CCC1CCCCC1)N1CCC(F)(CN[C@@H]2C[C@H]2c2ccccc2)CC1` (relative stereo) [Example A10, 3-cyclohexyl-1-(4-fluoro-4-(((trans-2-phenylcyclopropyl)amino)methyl)piperidin-1-yl)-1-propanone], in that order: over 20 µM and 0.6 ± 1.09 µM. For `O=C(OCC1CCNCC1)N1CCC(F)(CN[C@H]2C[C@@H]2c2ccccc2)CC1` [(1S,2R)-A43], the IC50 runs as follows: under setting [1], over 20 µM; under setting [2], 0.96 ± 0.444 µM. For `O=C(OC1CCNCC1)N1CCC(F)(CN[C@@H]2C[C@H]2c2ccccc2)CC1` (relative stereo) [Example A95, Piperidin-4-yl 4-fluoro-4-(((trans-2-phenylcyclopropyl)amino)methyl)piperidine-1-carboxylate], in that order: over 20 µM and 1.24 ± 0.844 µM. In the same order, the values of `CC(C)(C)OC(=O)c1ccc(CN2CCC(F)(CNC3CC3c3ccc(-c4ccccc4)s3)CC2)cc1` (stereo not drawn) [Example A108, Tert-butyl 4-((4-fluoro-4-(((2-(5-phenylthiophen-2-yl)cyclopropyl)amino)methyl)piperidin-1-yl)methyl)benzoate] are 2.64 ± 0.97 µM and 11.9 ± 2.04 µM. For `FC1(CN[C@@H]2C[C@H]2c2ccccc2)CCN(Cc2ccccc2)CC1` (relative stereo) [Example A6, N-((1-Benzyl-4-fluoropiperidin-4-yl)methyl)-trans-2-phenylcyclopropylamine], in that order: over 20 µM and 1.02 ± 2.44 µM. With `O=C(O)c1ccc(CN2CCC(F)(CN[C@@H]3C[C@H]3c3ccccc3)CC2)cc1` [(1R,2S)-A5, 4-((4-Fluoro-4-((((1R,2S)-2-phenylcyclopropyl)amino)methyl)piperidin-1-yl)methyl)benzoate], the IC50 under setting [1] is over 20 µM and the IC50 under setting [2] was determined as 0.29 ± 0.19 µM. Take `O=C(O)c1ccc(CN2CCC(F)(CN[C@H]3C[C@@H]3c3ccccc3)CC2)cc1` [(1S,2R)-A5, 4-((4-Fluoro-4-((((1S,2R)-2-phenylcyclopropyl)amino)methyl)piperidin-1-yl)methyl)benzoate]: the IC50 is over 20 µM under setting [1] and 3.77 ± 1.19 µM under setting [2]. In the same order, the values of `O=C(OCC1CNC1)N1CCC(F)(CN[C@@H]2C[C@H]2c2ccccc2)CC1` (relative stereo) [Example A94, Azetidin-3-ylmethyl 4-fluoro-4-(((trans-2-phenylcyclopropyl)amino)methyl)piperidine-1-carboxylate] are over 20 µM and 0.039 ± 0.011 µM.

As to `CNC1CCC(F)(CNC2CC2c2ccccc2)CC1` (stereo not drawn) [Example A11, 4-fluoro-N-methyl-4-(((trans-2-phenylcyclopropyl)amino)methyl)cyclohexane-1-amine], the IC50 under setting [1] is over 20 µM. For the molecule `O=C(O)c1ccc(CN2CCC(COC(=O)N3CCC(F)(CNC4CC4c4ccccc4)CC3)CC2)cc1` (stereo not drawn) [Example A91], the IC50 under setting [1] is over 20 µM and the IC50 under setting [2] is 1.7 ± 0.83 µM. In the same order, the values of `CC(C)(C)OC(=O)c1ccc(CN2CCC(F)(CNC3CC3c3ccc(-c4ccc(C(F)(F)F)cc4)s3)CC2)cc1` (stereo not drawn) [Example A107, Tert-butyl 4-((4-fluoro-4-(((2-(5-(4-(trifluoromethyl)phenyl)thiophen-2-yl)cyclopropyl)amino)methyl)piperidin-1-yl)methyl)benzoate] are 0.75 ± 0.15 µM and 13 ± 1.9 µM.

As to `O=C(NC1CCC(F)(CNC2CC2c2ccccc2)CC1)OCc1ccccc1` (stereo not drawn) [Example A19, Benzyl 4-fluoro-4-((trans-2-phenylcyclopropyl)amino)methyl)cyclohexyl)carbamate], the IC50 is, setting by setting: under setting [1], over 20 µM; under setting [2], 2.57 ± 1.66 µM. For `O=C(OCC1CCNCC1)N1CCC(F)(CNC2CC2c2ccc(-c3ccccc3)nc2)CC1` (stereo not drawn) [Example A115, Piperidin-4-ylmethyl 4-fluoro-4-(((2-(6-phenylpyridin-3-yl)cyclopropyl)amino)methyl)piperidine-1-carboxylate], the IC50 was over 20 µM under setting [1] and 11 ± 0.978 µM under setting [2]. Turning to `N#Cc1ccc(CN2CCC(F)(CN[C@@H]3C[C@H]3c3ccccc3)CC2)cc1` (relative stereo) [Example A96, 4-((4-Fluoro-4-(((trans-2-phenylcyclopropyl)amino)methyl)piperidin-1-yl)methyl)benzonitrile], the IC50 is, setting by setting: under setting [1], over 20 µM; under setting [2], 0.159 ± 0.074 µM. Regarding `FC1(CN[C@@H]2C[C@H]2c2ccccc2)CCCCC1` (relative stereo) [Example A18, N-((1-Fluorocyclohexyl)methyl)-trans-2-phenylcyclopropylamine], the IC50 is over 20 µM under setting [1] and 3 ± 5.19 µM under setting [2]. For `O=C(CCc1ccccc1)N1CCC(F)(CN[C@@H]2C[C@H]2c2ccccc2)CC1` (relative stereo) [Example A8, 1-(4-fluoro-4-(((trans-2-phenylcyclopropyl)amino)methyl)piperidin-1-yl)-3-phenyl-1-propanone], in that order: over 20 µM and 0.27 ± 0.37 µM. For `O=C(Oc1ccccc1)N1CCC(F)(CNC2CC2c2ccccc2)CC1` (stereo not drawn) [Example A9, Phenyl 4-Fluoro-4-((trans-2-phenylcyclopropyl)amino)methyl)piperidine-1-carboxylate], in that order: over 20 µM and 1.16 ± 0.15 µM. In the same order, the values of `FC1(CN[C@@H]2C[C@H]2c2ccccc2)CCN(CCCc2ccccc2)CC1` (relative stereo) [Example A12, N-((4-fluoro-1-(3-phenylpropyl)piperidin-4-yl)methyl)-trans-2-phenylcyclopropylamine] are over 20 µM and 0.96 µM.
